assay: in vitro; details: human, hela cells

Structure (SMILES) | viability at 28.5 h, 10 µM
O=C(Nc1ccc(OC(=O)N2CCCCC2)cc1)N1CCCCC1 [CBK090060] | 88.6%

same assay, conditions: human, hela cells, % viability

Structure (SMILES) | viability at 28.5 h, 10 µM
Cn1c(/C=C/C=C/CN2CCN(Cc3ccccc3)CC2)nc2ccc([N+](=O)[O-])cc21 [CBK268281] | 91.2%
CN1C(=O)c2ccc(NS(C)(=O)=O)cc2C1=O [CBK038158] | 104%
C[N+]1(C)CCN(C(=O)CCC(=O)N2CC[N+](C)(C)CC2)CC1 [CBK278200I] | 94.4%
COc1ccc(-c2cn(C[C@H]3CC4CCN3C[C@@H]4C(=O)NC3CCCCC3)nn2)cc1 (stereo partly drawn) [CBK289084] | 107%
CC(C)(C)C(=O)NC(N(Cc1ccccc1)Cc1ccccc1)C(Cl)(Cl)Cl (stereo not drawn) [CBK261023] | 97.7%
O=C(COc1ccc(S(=O)(=O)N2CCCCC2)cc1)Nc1ccc2c(c1)OCCO2 [CBK268205] | 102%
CO[C@@]12CC[C@H](OCC(=O)O)C[C@@H]1N(Cc1c(C)cnn1C)CC2 [CBK306638] | 95.6%
COc1ncccc1CNc1ncnc2c1cnn2CCO [CBK305980] | 116%
CC(=O)c1ccc(N2CCN(C(=O)c3cc(-c4ccncc4)nc4ccc(Cl)cc34)CC2)cc1 [CBK267781] | 91.8%
CC(=O)Nc1ccc(NC(=O)CSCC(=O)O)cc1 [CBK226269] | 89.3%
CCN1CCN(CCOc2c(OC)cccc2OC)CC1 [CBK267375G] | 96.9%
CCOC(=O)N1CCC(NC(=O)N2CCCC(CO)C2)CC1 (stereo not drawn) [CBK156345] | 90.6%
CC(=O)N1CCc2cc(C)ccc2C12CCN(CCCOc1ccccc1)CC2 [CBK081064] | 92.4%
COCc1cccc(-c2ncc(OC)nc2NC(=O)c2c(C)noc2C)c1 [CBK145237] | 95.6%
Cc1ccc(S(=O)(=O)Nn2cnnc2)cc1 [CBK027263] | 108%
O=C(CCCc1nc(-c2ccccc2Cl)no1)Nc1cccnc1 [CBK269122] | 91.6%
Cc1cc(C)n2ncc(C(=O)NCC(c3cccs3)N3CCCC3)c2n1 (stereo not drawn) [CBK305675] | 85.3%
CCCC/C=C/c1cn2ccnc2c(N2CCOCC2)n1 [CBK038031] | 100%
COC(=O)c1cc(NC(=O)c2cc(-c3ccc(C)o3)nc3ccccc23)cc(C(=O)OC)c1 [CBK265400] | 86.3%
Cc1cccc(C)c1N(C1CCNCC1)S(=O)(=O)c1ccc2c(c1)CCO2 [CBK153668T] | 99.1%
O=C(O)CCc1ccc(-c2cccs2)n1CCOc1ccccc1Cl [CBK267885] | 89%
Cc1nnc(SCC(=O)NCc2c(C)c(Cl)cc(C(C)C)c2O)s1 [CBK269662] | 86.1%

Structure (SMILES) | viability at 28.5 h, 10 µM
Nc1nnc(C(F)(F)F)o1 [CBK023457] | 113%
CN1CCN(CC(=O)N2c3ccccc3C(C)(c3ccc(Cl)cc3)CC2(C)C)CC1 (stereo not drawn) [CBK059202] | 88.1%
Cc1cccc(NC(=O)CN2C(=O)S/C(=C\c3cc(C)n(-c4cc(C)ccn4)c3C)C2=O)c1 [CBK264671] | 93.4%
Nc1ncnc(NCCCn2ccnc2)c1[N+](=O)[O-] [CBK267312] | 93.5%
CC(C)Nc1nc2ccccc2nc1Sc1ccncc1 [CBK115250] | 102%
Cc1cc(C)n(C(C)C(=O)N2CCC(Nc3cccnc3)CC2)n1 (stereo not drawn) [CBK305917] | 94.2%
CCN1C(=O)c2ccccc2C(=O)[C@@]2(C)CN(C(C)=O)C[C@@H]12 [CBK281686] | 89.7%
Cc1c(Br)c(C(F)(F)F)nn1CC(=O)NCCN1CCOCC1 [CBK018700] | 107%
Cc1cccc(C(=O)Nc2cc(NC(=O)c3cccc(C)c3)cc(C(=O)O)c2)c1 [CBK269649] | 98%
CN(C)Cc1ccccc1Cn1cncc1-c1cnn(C)c1 [CBK281764] | 99.5%
CCc1nc(CCn2ccc3nc(OC)c(C#N)cc3c2=O)no1 [CBK307668] | 94.1%
Cc1c(NC(=O)Nc2ccccc2)sc(=S)n1C [CBK027434] | 90.6%
CN1C(=O)COc2ccccc2C/C=C/C[C@H]2CN(C(=O)C3CCC3)CC[C@H]21 [CBK292087] | 95.1%
OC1(c2ccc(F)cc2)CCCC2CN(Cc3cccnc3)CC21 (stereo not drawn) [CBK284377] | 86.8%
FC(F)(F)c1cccnc1OCc1cccnc1 [CBK115780] | 101%
CCCC(=O)c1ccc(S(=O)(=O)N2CCCN(Cc3c(C)[nH]c(C(=O)OCC)c3C)CC2)cc1 [CBK062947] | 101%
CC(C)n1nccc1C(=O)NCC(c1ccccc1F)N1CCCC1 (stereo not drawn) [CBK283032] | 94.1%
c1ccc(CCNc2nc(-c3ccc(N4CCOCC4)cc3)cn3ccnc23)nc1 [CBK037271] | 96.4%
O=C(NCc1ccco1)c1cc(S(=O)(=O)N2CCOCC2)ccc1Br [CBK269907] | 90.7%
CC(C)c1noc([C@@H]2C[C@H](NS(=O)(=O)c3ccc(F)cc3)CN2C)n1 [CBK288864] | 114%
Cc1ccc(S(=O)(=O)NCCSc2nnc(N)s2)cc1 [CBK266300] | 97.9%
Cc1cc(C(=O)N2CCN(C(=O)c3ccco3)CC2)n[nH]1 [CBK144447] | 98.9%

Structure (SMILES) | viability at 28.5 h, 10 µM
CC(C)CNC(=S)N[C@H]1CO[C@H]2[C@@H]1OC[C@@H]2Nc1nccc(C(C)(C)C)n1 [CBK289523] | 90.9%
O=C(/C=C\c1cn(-c2ccccc2)nc1-c1cccc([N+](=O)[O-])c1)n1nnc2ccccc21 [CBK265273] | 104%
C[C@@H](Nc1nccnc1-c1cccnc1)c1ccccc1 [CBK036759] | 109%
COc1ccc(CCN2CCC(CNC(=O)NCc3ccccc3)CC2)cc1OC [CBK051511T] | 92.3%
CC(=O)Nc1ccc2nc(NC(=O)c3ccc4c(c3)OCCO4)sc2c1 [CBK287571] | 101%
O=C(c1sc2ccccc2c1C1CCN(Cc2ccccc2F)C1)N1CCOCC1 (stereo not drawn) [CBK286260] | 103%
O=C1c2ccccc2CN1c1cccc(Cl)c1Cl [CBK109916] | 82.3%
O=C(Cn1nnc2ccccc21)NCCN1CCCC1 [CBK267200] | 106%
O=C(Nc1cc(-c2nc3ncccc3o2)ccc1Cl)c1ccc(-c2ccccc2[N+](=O)[O-])o1 [CBK264097] | 89%
c1ccc(Oc2cccc(OCCCCN3CCNCC3)c2)cc1 [CBK266027G] | 92.6%
COc1ccc(C)cc1NC(=O)N1CCC2(CC1)CC(=O)c1ccc(C)cc1O2 [CBK166520] | 91.4%
O=C(Cn1ncn2c(cc3ccsc32)c1=O)N1CCCCC1 [CBK284195] | 85.2%
CCC(=O)N1CCC2(CCCC[C@H]3CN(C(C)=O)CC[C@H]3NC(=O)CNC2=O)CC1 [CBK292147] | 96.6%
C[C@@H](Nc1cncc(-c2ccc(F)cc2F)n1)c1ccccc1 [CBK065676] | 87%
O=C(CN1CCC(c2ccccc2F)CC1)N1CCCCC1 [CBK283577] | 97.3%
N#Cc1ccccc1CSc1nnc(-c2ccco2)n1-c1ccccc1 [CBK267270] | 91.8%
Cc1ccsc1CN(CCCO)Cc1cn(C)nc1C [CBK282983] | 95.7%
COC(=O)c1c(NC(=O)c2ccccc2)csc1C [CBK026684] | 90.3%
Cc1cccc(Cc2cccc(C3CCCN(S(=O)(=O)c4cn(C)nc4C)C3)n2)c1 (stereo not drawn) [CBK286131] | 101%
O=C(CSCc1ccc(C(=O)O)cc1)Nc1ccc2ccccc2c1 [CBK299833] | 76.1%
CCCCc1ccc(-c2nccn2CC2CN(C(C)=O)CCO2)s1 (stereo not drawn) [CBK307600] | 110%
COc1cc(NC(=O)c2ccc3c(c2)C(=O)N(c2c(C)cc(C)cc2C)C3=O)c(C(=O)O)cc1OC [CBK264074] | 91.1%

Structure (SMILES) | viability at 28.5 h, 10 µM
O=C1CCC(=O)N1CCOc1nccnc1N1CCN(CCCn2c(=O)[nH]c3ccccc32)CC1 [CBK084300] | 110%
O=C(NCCCn1ccnc1)c1ccccc1C(=O)c1ccccc1 [CBK262954] | 93.2%
COc1ccc(C(=O)N2CCN(c3nc4c(s3)c(C)nn4C)CC2)cc1 [CBK307457] | 96%
COc1ccc(CCNC(=O)c2cc(-c3ccc(C)o3)nc3ccccc23)cc1OC [CBK265486] | 117%
CSCC[C@H](NC(=O)c1cccc2c1-c1ccccc1C2=O)C(=O)O [CBK286781] | 95.5%
COc1cc(/C=N\NC(=O)CN2CCN(C)CC2)cc2c1OCO2 [CBK261503] | 109%
O=C(Nc1nn(Cc2ccc(Oc3ccccc3)cc2)c2ccccc12)c1ccno1 [CBK048224] | 97.8%
CCCNC(CC(=O)Nc1ccccc1)C(=O)O (stereo not drawn) [CBK266819] | 95.3%
CCCc1cc(C(=O)N2CCCN(Cc3cnn(CC)c3)CC2)[nH]n1 [CBK305293] | 92.3%
C(#Cc1csc(COc2cncc(N3CCNCC3)n2)c1)c1ccccc1 [CBK200006G] | 92.5%
COc1ccc(CN(CCCN2CCOCC2)C(=O)NCCCN2CCCC2=O)cc1OC [CBK159180] | 93.2%
COc1cccc(CN2CCCC3(C2)c2[nH]c4ccccc4c2CCN3C(C)=O)c1 (stereo not drawn) [CBK039634] | 86.4%
Cn1c(=O)n(C)c2cc(CNc3nn[nH]n3)ccc21 [CBK270243] | 92.4%
CC(NC(=O)N(Cc1c[nH]c(-c2ccccc2)n1)CC(C)(C)CN)c1cccc2ccccc12 (stereo not drawn) [CBK026801C] | 96.3%
Cc1ccc(Cl)c(OC(C)C(=O)NCC2(N3CCOCC3)CCSC2)c1 (stereo not drawn) [CBK305681] | 110%
Cc1ccc(C(C)C(=O)N2CCC(O)(c3ccccn3)CC2)cc1 (stereo not drawn) [CBK283787] | 86.7%
Cc1cc2c(cc1C)N(C(=O)CSc1nc3ccccc3[nH]1)C(C)(C)CC2C (stereo not drawn) [CBK264144] | 98.7%
O=C(NC(c1ccccc1)c1ccsc1)C1CCN(S(=O)(=O)c2cccc(Cl)c2)CC1 (stereo not drawn) [CBK060188] | 97.7%
COCCN1C(=O)C2(CC(=O)N(CCCCC(C)C)C2=O)c2cc(OC)ccc21 (stereo not drawn) [CBK075145] | 109%

same assay, conditions: human, hela cells, % viability, bulk resorufin, single well

Structure (SMILES) | viability at 28.5 h, 10 µM
N#CC1(c2ccccc2)CCN(C(=O)c2ccccc2C(=O)c2ccccc2)CC1 [CBK091396] | 107%

From paper PMC12040169 (PLOS Biology, 2025)
